A word on the IC50: it is the concentration that inhibits the measured activity by half.

This is an account of results in patent publication US11591355B2 (Peloton Therapeutics, Inc., priority 2017, dated 2023).

Where only a bound is given, the exact number is not on record here.

Experiment [1] has as its target T1, Human CD73 (Homo sapiens, UniProt P21589).
T1 construct: purchased R&D Systems; host or cells: CHO cells
T1 sequence (P21589 27-549): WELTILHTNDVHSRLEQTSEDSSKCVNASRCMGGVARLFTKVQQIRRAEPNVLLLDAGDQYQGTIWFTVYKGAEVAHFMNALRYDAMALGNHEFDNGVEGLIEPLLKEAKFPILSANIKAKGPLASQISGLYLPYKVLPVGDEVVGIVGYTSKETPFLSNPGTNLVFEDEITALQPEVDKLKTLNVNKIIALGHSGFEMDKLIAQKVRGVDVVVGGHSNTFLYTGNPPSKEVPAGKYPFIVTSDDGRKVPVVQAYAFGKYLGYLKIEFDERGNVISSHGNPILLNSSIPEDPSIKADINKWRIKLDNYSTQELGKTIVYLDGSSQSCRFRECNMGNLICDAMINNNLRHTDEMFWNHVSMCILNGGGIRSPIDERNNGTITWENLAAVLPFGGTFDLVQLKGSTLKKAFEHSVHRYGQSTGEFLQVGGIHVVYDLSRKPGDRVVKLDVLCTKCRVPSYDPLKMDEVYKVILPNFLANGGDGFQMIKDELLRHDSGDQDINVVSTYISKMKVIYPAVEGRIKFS
The experiment can be described thus: CD73 Enzyme Assay. It is filed as biochemical. The conditions noted are these: 0.25 nM hCD73, 25 μM AMP, kinetic read at 360 nm; read-out: CD73 Enzyme Assay IC50.

Experiment [2] addresses T2, CD73 on U138 human neuroglioma cells (Homo sapiens, UniProt P21589).
T2 construct: U138 cells were obtained from ATCC and cultured in DMEM with 10% FBS; host or cells: U138 human neuroglioma cells
T2 sequence (P21589 27-549): T1 sequence (P21589 27-549)
The experiment can be described thus: CD73 Cell-Based Assay. The conditions noted are these: U138 cells, AMP substrate, 2 hours at 37° C., inorganic phosphate by malachite green. The method, boiled down: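 Whole U138 cells washed free of phosphate were incubated with 200 μM AMP (mixture concentration before equal-volume addition) plus compound in HEPES-buffered saline, pH 7.4, for 2 h at 37 °C, 5% CO2. Adenosine-forming activity read as inorganic phosphate released into supernatant by malachite green.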

Regarding `C[C@H](Nc1nc(C#N)nc2c1ccn2[C@@H]1O[C@H](COCP(=O)(O)O)[C@@H](O)[C@H]1O)c1ccc(C#N)cc1` [Compound 141, [(2R,3S,4R,5R)-5-[2-cyano-4-[[(1S)-1-(4-cyanophenyl)ethyl]-amino]pyrrolo[2,3-d]-pyrimidin-7-yl]-3,4-dihydroxy-tetrahydro-furan-2-yl]methoxy-methylphosphonic acid], the half-inhibitory concentration (IC50) in experiment [1] and in experiment [2] was less than 10 nM throughout.
Take `O=P(O)(O)COC[C@H]1O[C@@H](n2ccc3c(NC4CCCC4)nc(C(F)(F)F)nc32)[C@H](O)[C@@H]1O` [Compound 231, [(2R,3S,4R,5R)-5-[4-(cyclopentylamino)-2-(trifluoromethyl)-pyrrolo[2,3-d]-pyrimidin-7-yl]-3,4-dihydroxy-tetrahydro-furan-2-yl]methoxy-methylphosphonic acid]: the IC50 in experiment [1] and in experiment [2] was 10 to 100 nM in each case.
As to `C[C@@H](Nc1nc(Cl)nc2c1c(F)cn2[C@@H]1O[C@H](COCP(=O)(O)O)[C@@H](O)[C@H]1O)c1ccccc1` [Compound 130, [(2R,3S,4R,5R)-5-[2-chloro-5-fluoro-4-[[(1R)-1-phenylethyl]-amino]pyrrolo[2,3-d]-pyrimidin-7-yl]-3,4-dihydroxy-tetrahydro-furan-2-yl]methoxy-methylphosphonic acid], the IC50 in experiment [1] and in experiment [2] was 10 to 100 nM in each case.
With `O=P(O)(O)COC[C@H]1O[C@@H](n2ccc3c(OC4CCCC4)nc(Cl)nc32)[C@H](O)[C@@H]1O` [Compound 219, [(2R,3S,4R,5R)-5-[2-chloro-4-(cyclo-pentoxy)pyrrolo[2,3-d]-pyrimidin-7-yl]-3,4-dihydroxy-tetrahydro-furan-2-yl]methoxy-methylphosphonic acid], the IC50 in experiment [1] and in experiment [2] was 10 to 100 nM each time.
Regarding `O=P(O)(O)COC[C@H]1O[C@@H](n2ccc3c(N4CCCCC4)nc(Cl)nc32)[C@H](O)[C@@H]1O` [Compound 126, [(2R,3S,4R,5R)-5-[2-chloro-4-(1-piperidyl)-pyrrolo[2,3-d]-pyrimidin-7-yl]-3,4-dihydroxy-tetrahydro-furan-2-yl]methoxy-methylphosphonic acid], the IC50 in experiment [1] is 10 to 100 nM; in experiment [2], less than 10 nM.
For `C[C@H](Nc1nc(Cl)nc2c1ccn2[C@@H]1O[C@H](COCP(=O)(O)O)[C@@H](O)[C@H]1O)c1ccc(Cl)cc1` [Compound 140, [(2R,3S,4R,5R)-5-[2-chloro-4-[[(1S)-1-(4-chlorophenyl)ethyl]-amino]pyrrolo[2,3-d]-pyrimidin-7-yl]-3,4-dihydroxy-tetrahydro-furan-2-yl]methoxy-methylphosphonic acid] the same measures were less than 10 nM and less than 10 nM.
For `CC(C)N(C)c1nc(Cl)nc2c1ccn2[C@@H]1O[C@H](CS(=O)(=O)CP(=O)(O)O)[C@@H](O)[C@H]1O` [Compound 177, [(2S,3S,4R,5R)-5-[2-chloro-4-[isopropyl-(methyl)amino]-pyrrolo[2,3-d]-pyrimidin-7-yl]-3,4-dihydroxy-tetrahydro-furan-2-yl]methyl-sulfonylmethylphos-phonic acid] the same measures were less than 10 nM and less than 10 nM.
Turning to `C[C@H](c1ccccc1)N(C)c1nc(Cl)nc2c1ccn2[C@@H]1O[C@H](COCP(=O)(O)O)[C@@H](O)[C@H]1O` [Compound 124, [(2R,3S,4R,5R)-5-[2-chloro-4-[methyl-[(1R)-1-phenylethyl]-amino]pyrrolo[2,3-d]-pyrimidin-7-yl]-3,4-dihydroxy-tetrahydro-furan-2-yl]methoxy-methylphosphonic acid], the IC50 in experiment [1] and in experiment [2] was less than 10 nM each time.
`C[C@@H](O)COc1nc(NC2CCCC2)c2ccn([C@@H]3O[C@H](COCP(=O)(O)O)[C@@H](O)[C@H]3O)c2n1` [Compound 261, [(2R,3S,4R,5R)-5-[4-(cyclopentylamino)-2-[(2R)-2-hydroxy-propoxy]pyrrolo[2,3-d]pyrimidin-7-yl]-3,4-dihydroxy-tetrahydro-furan-2-yl]methoxy-methylphosphonic acid]: the IC50 in experiment [1] and in experiment [2] was less than 10 nM in each case.
Consider `C[C@H](c1ccccc1)N(C)c1nc(Cl)nc2c1ccn2[C@@H]1O[C@H](COCP(=O)(O)OCOC(=O)C(C)(C)C)[C@@H](O)[C@H]1O` [Compound 132, ((((((2R,3S,4R,5R)-5-(2-chloro-4-(methyl((R)-1-phenylethyl)amino)-7H-pyrrolo[2,3-d]pyrimidin-7-yl)-3,4-dihydroxytetrahydrofuran-2-yl)methoxy)methyl)(hydroxy)phosphoryl)oxy)methyl pivalate], for which the IC50 in experiment [1] is less than 10 nM; in experiment [2] it was 10 to 100 nM.
For `O=P(O)(O)COC[C@H]1O[C@@H](n2ncc3c(NC4CCC4)nc(Cl)nc32)[C@H](O)[C@@H]1O` [Compound 270, [(2R,3S,4R,5R)-5-[6-chloro-4-(cyclobutyl-amino)pyrazolo[3,4-d]-pyrimidin-1-yl]-3,4-dihydroxy-tetrahydro-furan-2-yl]methoxy-methylphosphonic acid] the same measures were less than 10 nM and less than 10 nM.
For `C[C@@H](Nc1nc(Cl)nc2c1ccn2C1O[C@H](COCP(=O)(O)O)[C@@H](O)[C@H]1O)c1ccc(C2CC2)cc1` (stereo partly drawn) [Compound 197, [(2R,3S,4R,5R)-5-[2-chloro-4-[[(1R)-1-(4-cyclopropylphenyl)-ethyl]amino]pyrrolo-[2,3-d]pyrimidin-7-yl]-3,4-dihydroxy-tetra-hydrofuran-2-yl]-methoxymethylphos-phonic acid] the same measures were less than 10 nM and less than 10 nM.
Turning to `O=P(O)(O)COC[C@H]1O[C@@H](n2cnc3c(N4CCCC4)ncnc32)[C@H](O)[C@@H]1O` [Compound 43, [(2R,3S,4R,5R)-3,4-dihydroxy-5-(6-pyrrolidin-1-ylpurin-9-yl)tetrahydrofuran-2-yl]methoxymethyl-phosphonic acid], the 50% inhibitory concentration (IC50) in experiment [1] and in experiment [2] was 100 to 1000 nM throughout.
Turning to `O=P(O)(O)COC[C@H]1O[C@@H](n2ncc3c(N4CCC(F)(F)C4)nc(Cl)nc32)[C@H](O)[C@@H]1O` [Compound 275, [(2R,3S,4R,5R)-5-[6-chloro-4-(3,3-difluoro-pyrrolidin-1-yl)-pyrazolo[3,4-d]-pyrimidin-1-yl]-3,4-dihydroxy-tetrahydro-furan-2-yl]methoxy-methylphosphonic acid], the concentration for half-maximal inhibition (IC50) in experiment [1] and in experiment [2] was less than 10 nM in each case.
Regarding `O=P(O)(O)CS(=O)(=O)C[C@H]1O[C@@H](n2ncc3c(NC4CCCC4)nc(Cl)nc32)[C@H](O)[C@@H]1O` [Compound 287, [(2S,3S,4R,5R)-5-[6-chloro-4-(cyclopentyl-amino)pyrazolo[3,4-d]-pyrimidin-1-yl]-3,4-dihydroxy-tetrahydro-furan-2-yl]methyl-sulfonylmethylphos-phonic acid], the half-inhibitory concentration (IC50) in experiment [1] and in experiment [2] was less than 10 nM in each case.
For `C[C@H](Nc1nc(Cl)nc2c1ncn2[C@@H]1O[C@H](COCP(=O)(O)O)[C@@H](O)[C@H]1O)c1ccccc1` [Compound 21, ((((2R,3S,4R,5R)-5-(2-chloro-6-(((S)-1-phenylethyl)amino)-9H-purin-9-yl)-3,4-dihydroxytetrahydrofuran-2-yl)methoxy)methyl)phosphonic acid], the IC50 in experiment [1] and in experiment [2] was 10 to 100 nM each time.
Turning to `C[C@H](c1ccccc1)N(C)c1nc(Cl)nc2c1ncn2[C@@H]1O[C@H](COCP(=O)(O)O)[C@@H](O)[C@H]1O` [Compound 104], the half-maximal inhibitory concentration (IC50) was 10 to 100 nM in experiment [1] and less than 10 nM in experiment [2].
For `C[C@@H](Nc1nc(C#N)nc2c1ccn2[C@@H]1O[C@H](COCP(=O)(O)O)[C@@H](O)[C@H]1O)c1ccccc1` [Compound 62, [(2R,3S,4R,5R)-5-[2-cyano-4-[[(1R)-1-phenylethyl]amino]pyrrolo[2,3-d]pyrimidin-7-yl]-3,4-dihydroxy-tetrahydrofuran-2-yl]methoxymethylphosphonic acid] the same measures were less than 10 nM and less than 10 nM.
For `CC(C)(C)C#Cc1nc(NC2CCCC2)c2ccn([C@@H]3O[C@H](COCP(=O)(O)O)[C@@H](O)[C@H]3O)c2n1` [Compound 254, [(2R,3S,4R,5R)-5-[4-(cyclopentylamino)-2-(3,3-dimethylbut-1-ynyl)pyrrolo[2,3-d]-pyrimidin-7-yl]-3,4-dihydroxy-tetrahydro-furan-2-yl]methoxy-methylphosphonic acid] the same measures were 100 to 1000 nM and 100 to 1000 nM.
For the compound `C[C@@H](c1ccccc1)N(C)c1nc(Cl)nc2c1ccn2[C@@H]1O[C@H](COCP(=O)(O)O)[C@@H](O)[C@H]1O` [Compound 131, [(2R,3S,4R,5R)-5-[2-chloro-4-[methyl-[(1S)-1-phenylethyl]-amino]pyrrolo[2,3-d]-pyrimidin-7-yl]-3,4-dihydroxy-tetrahydro-furan-2-yl]methoxy-methylphosphonic acid], the IC50 in experiment [1] and in experiment [2] was less than 10 nM each time.
